Experimental data reported in paper PMC4490784, “Compensatory induction of MYC expression by sustained CDK9 inhibition via a BRD4-dependent mechanism” (eLife, 2015).

Assays:
ERK2 = molecular target: T1, ERK2 (Homo sapiens, UniProt P28482); experiment: biochemical binding or enzymatic assay; details: Novartis
T1 construct: purchased DiscoveRx KINOMEscan
Outline: (§1)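 i-CDK9 concentration–response; functional kinase assay or binding assay per target; follow-up to KINOMEscan panel.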

S6K1 = S6K1 (Homo sapiens, UniProt P23443); experiment: biochemical binding or enzymatic assay; details: Novartis
S6K1, sequence (P23443 whole entry): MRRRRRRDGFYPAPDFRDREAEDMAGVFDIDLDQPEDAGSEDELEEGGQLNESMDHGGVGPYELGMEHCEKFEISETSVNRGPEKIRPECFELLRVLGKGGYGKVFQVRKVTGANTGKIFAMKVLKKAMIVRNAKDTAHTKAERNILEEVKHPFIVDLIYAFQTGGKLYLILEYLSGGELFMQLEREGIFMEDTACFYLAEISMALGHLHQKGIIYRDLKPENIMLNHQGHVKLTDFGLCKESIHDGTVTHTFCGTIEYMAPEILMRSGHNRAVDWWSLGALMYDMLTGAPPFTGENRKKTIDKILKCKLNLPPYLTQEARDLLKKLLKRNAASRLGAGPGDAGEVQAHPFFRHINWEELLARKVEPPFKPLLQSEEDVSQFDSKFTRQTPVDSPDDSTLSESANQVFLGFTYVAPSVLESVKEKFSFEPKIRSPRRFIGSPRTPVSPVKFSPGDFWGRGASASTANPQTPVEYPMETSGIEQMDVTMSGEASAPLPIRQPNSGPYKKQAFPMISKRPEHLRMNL
Outline: as §1

RET = molecular target: T2, RET (Homo sapiens, UniProt P07949); experiment: biochemical binding or enzymatic assay; details: Novartis
T2 construct: purchased DiscoveRx KINOMEscan
T2 sequence (P07949 29-1114): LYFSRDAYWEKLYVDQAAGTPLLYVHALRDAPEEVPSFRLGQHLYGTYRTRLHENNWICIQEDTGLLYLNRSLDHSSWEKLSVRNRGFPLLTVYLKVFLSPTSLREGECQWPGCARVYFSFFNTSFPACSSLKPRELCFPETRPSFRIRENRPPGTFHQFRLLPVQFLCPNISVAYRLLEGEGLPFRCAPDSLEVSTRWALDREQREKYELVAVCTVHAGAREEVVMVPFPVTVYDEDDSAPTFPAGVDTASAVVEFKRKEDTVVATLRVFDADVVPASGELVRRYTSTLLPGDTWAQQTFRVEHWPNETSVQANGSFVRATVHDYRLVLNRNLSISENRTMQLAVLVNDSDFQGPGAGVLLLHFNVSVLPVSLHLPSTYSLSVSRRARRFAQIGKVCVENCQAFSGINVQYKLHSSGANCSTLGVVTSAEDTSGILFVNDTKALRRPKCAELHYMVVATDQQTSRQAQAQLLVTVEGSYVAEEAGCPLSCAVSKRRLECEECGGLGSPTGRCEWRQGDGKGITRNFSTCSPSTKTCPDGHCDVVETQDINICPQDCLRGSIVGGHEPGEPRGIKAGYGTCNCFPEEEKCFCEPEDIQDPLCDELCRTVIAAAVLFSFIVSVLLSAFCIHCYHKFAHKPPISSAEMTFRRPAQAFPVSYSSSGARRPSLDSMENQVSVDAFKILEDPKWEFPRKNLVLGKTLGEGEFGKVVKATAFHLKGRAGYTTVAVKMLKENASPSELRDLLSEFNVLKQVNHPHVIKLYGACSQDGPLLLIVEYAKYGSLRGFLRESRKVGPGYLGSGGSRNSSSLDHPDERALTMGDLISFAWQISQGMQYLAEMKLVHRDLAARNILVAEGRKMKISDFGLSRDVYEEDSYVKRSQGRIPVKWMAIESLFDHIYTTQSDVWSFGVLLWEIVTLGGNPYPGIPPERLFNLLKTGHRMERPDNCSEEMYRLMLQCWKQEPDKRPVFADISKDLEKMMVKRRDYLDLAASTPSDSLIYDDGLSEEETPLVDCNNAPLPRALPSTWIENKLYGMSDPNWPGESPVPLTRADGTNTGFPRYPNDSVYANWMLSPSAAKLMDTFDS
Outline: as §1

AKT1 = molecular target: T3, AKT1 (Homo sapiens, UniProt P31749); experiment: biochemical binding or enzymatic assay; details: Novartis
T3 construct: purchased DiscoveRx KINOMEscan
T3 sequence (P31749 whole entry): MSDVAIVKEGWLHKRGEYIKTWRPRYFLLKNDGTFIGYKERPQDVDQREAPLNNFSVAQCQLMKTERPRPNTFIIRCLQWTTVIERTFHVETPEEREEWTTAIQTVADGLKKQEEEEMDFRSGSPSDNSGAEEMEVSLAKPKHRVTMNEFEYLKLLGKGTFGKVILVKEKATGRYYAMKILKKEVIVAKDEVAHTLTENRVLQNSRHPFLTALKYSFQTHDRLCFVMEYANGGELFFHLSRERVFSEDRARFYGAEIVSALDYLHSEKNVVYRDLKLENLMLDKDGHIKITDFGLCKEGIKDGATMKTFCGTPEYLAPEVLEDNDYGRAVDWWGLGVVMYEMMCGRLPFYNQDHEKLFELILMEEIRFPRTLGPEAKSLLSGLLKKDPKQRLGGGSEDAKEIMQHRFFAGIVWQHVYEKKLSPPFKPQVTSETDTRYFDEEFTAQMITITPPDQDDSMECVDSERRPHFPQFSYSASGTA
Outline: as §1

PKN2 = molecular target: T4, PKN2 (Homo sapiens, UniProt Q16513); experiment: biochemical binding or enzymatic assay; details: Novartis
T4 construct: purchased DiscoveRx KINOMEscan
T4 sequence (Q16513 whole entry): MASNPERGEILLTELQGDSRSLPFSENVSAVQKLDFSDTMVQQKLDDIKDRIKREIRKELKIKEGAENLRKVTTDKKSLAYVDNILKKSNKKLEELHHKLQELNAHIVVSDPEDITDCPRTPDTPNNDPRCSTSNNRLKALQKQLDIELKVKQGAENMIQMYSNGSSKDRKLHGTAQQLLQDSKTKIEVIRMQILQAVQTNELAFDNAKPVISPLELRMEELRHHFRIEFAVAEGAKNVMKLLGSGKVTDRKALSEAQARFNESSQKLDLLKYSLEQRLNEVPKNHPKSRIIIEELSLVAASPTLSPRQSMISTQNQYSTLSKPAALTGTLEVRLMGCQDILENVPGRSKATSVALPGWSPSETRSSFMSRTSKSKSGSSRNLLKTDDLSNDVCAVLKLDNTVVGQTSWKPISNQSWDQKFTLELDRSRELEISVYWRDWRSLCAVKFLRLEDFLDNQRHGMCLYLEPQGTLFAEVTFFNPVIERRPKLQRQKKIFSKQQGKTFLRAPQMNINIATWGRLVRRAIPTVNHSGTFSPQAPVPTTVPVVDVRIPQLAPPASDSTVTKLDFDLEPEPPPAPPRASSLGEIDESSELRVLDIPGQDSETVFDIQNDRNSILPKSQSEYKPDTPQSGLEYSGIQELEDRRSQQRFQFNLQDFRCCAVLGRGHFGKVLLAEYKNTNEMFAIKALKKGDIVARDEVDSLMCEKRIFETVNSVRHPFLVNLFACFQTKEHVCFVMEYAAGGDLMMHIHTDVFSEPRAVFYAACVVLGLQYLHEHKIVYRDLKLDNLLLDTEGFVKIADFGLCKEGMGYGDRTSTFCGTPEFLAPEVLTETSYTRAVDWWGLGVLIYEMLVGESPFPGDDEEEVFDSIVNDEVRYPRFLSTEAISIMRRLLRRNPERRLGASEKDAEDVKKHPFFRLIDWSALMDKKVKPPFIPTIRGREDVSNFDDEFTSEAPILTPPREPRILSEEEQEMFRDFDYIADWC
Outline: as §1

PCTK1 = molecular target: T5, PCTK1 (Homo sapiens, UniProt Q00536); experiment: biochemical binding or enzymatic assay; details: Ambit
T5 construct: purchased DiscoveRx KINOMEscan
Outline: as §1

SYK = molecular target: T6, SYK (Homo sapiens, UniProt P43405); experiment: biochemical binding or enzymatic assay; details: Novartis
T6 construct: purchased DiscoveRx KINOMEscan
Outline: as §1

FYN = molecular target: T7, FYN (Homo sapiens, UniProt P06241); experiment: biochemical binding or enzymatic assay; details: Novartis
T7 construct: purchased DiscoveRx KINOMEscan
T7 sequence (P06241 whole entry): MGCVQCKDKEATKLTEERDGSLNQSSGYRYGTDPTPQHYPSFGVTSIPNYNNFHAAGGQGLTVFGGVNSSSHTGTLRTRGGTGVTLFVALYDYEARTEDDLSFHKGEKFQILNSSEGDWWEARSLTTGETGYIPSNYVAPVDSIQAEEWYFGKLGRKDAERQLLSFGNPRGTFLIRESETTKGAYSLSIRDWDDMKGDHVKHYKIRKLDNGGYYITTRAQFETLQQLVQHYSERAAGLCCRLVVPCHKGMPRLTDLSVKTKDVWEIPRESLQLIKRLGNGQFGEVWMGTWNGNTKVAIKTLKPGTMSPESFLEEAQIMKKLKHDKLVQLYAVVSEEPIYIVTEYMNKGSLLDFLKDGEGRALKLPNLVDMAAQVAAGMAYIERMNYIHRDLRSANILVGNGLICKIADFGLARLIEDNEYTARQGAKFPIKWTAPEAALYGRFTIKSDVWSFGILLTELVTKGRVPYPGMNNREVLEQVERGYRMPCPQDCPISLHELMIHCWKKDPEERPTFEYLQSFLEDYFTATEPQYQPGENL
Outline: as §1

GSK3B = molecular target: T8, GSK3B (Homo sapiens, UniProt P49841); experiment: biochemical binding or enzymatic assay; details: Novartis
T8 construct: purchased DiscoveRx KINOMEscan
Outline: as §1

AURKA = molecular target: T9, AURKA (Homo sapiens, UniProt O14965); experiment: biochemical binding or enzymatic assay; details: Novartis
T9 construct: purchased DiscoveRx KINOMEscan
T9 sequence (O14965 1-403): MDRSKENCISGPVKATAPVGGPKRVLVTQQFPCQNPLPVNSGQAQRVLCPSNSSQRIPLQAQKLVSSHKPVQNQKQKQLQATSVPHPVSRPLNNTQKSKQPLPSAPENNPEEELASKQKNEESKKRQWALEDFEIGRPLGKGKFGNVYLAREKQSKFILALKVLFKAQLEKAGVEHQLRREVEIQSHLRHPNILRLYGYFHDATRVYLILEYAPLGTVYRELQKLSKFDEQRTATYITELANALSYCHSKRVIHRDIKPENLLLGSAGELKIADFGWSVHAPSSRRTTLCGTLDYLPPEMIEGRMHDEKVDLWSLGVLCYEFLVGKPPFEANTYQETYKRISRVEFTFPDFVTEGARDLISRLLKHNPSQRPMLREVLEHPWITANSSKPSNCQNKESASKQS
Outline: as §1

ZAP70 = molecular target: T10, ZAP70 (Homo sapiens, UniProt P43403); experiment: biochemical binding or enzymatic assay
T10 construct: purchased DiscoveRx KINOMEscan
T10 sequence (P43403 1-619): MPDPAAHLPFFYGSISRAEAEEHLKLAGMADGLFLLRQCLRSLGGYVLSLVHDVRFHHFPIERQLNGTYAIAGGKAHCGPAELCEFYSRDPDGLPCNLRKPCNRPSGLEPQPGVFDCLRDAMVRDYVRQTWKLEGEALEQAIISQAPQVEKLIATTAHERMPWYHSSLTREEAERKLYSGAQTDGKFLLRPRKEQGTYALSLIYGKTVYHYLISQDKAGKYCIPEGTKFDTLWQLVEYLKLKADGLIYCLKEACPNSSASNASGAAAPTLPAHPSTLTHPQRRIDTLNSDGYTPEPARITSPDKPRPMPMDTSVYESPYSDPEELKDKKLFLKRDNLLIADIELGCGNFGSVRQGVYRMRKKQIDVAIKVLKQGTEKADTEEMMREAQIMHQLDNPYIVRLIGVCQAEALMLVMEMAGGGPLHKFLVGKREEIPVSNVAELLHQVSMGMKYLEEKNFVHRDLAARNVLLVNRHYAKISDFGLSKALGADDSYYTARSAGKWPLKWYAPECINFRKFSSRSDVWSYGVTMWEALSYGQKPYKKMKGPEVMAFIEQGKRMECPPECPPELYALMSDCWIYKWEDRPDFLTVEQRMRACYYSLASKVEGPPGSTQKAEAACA
Outline: as §1

HeLa cells = experiment: Immunoblotting of MCL-1 and PARP in HeLa cell lysates; assay type: cell-based, human; details: 8 hr
Description: Figure 1. i-CDK9 is a potent and selective CDK9 inhibitor that elicits cellular responses indicative of P-TEFb inhibition. (A and B) Structures and selectivity profiles of i-CDK9 (A) and falvopiridol (B). […] (C) In vitro kinase reactions containing affinity-purified CDK9-F-CycT or CDK12-F-CycK and GST-CTD as a substrate were conducted in the presence of the indicated concentrations of i-CDK9. pSer2 and the Flag-tagged kinase in each reaction were detected by Western blotting with anti-pSer2 and anti-Flag antibodies, respectively. (D) HeLa cells were treated for 8 hr with DMSO or the indicated concentrations of i-CDK9. Total cell lysates were examined by immunoblotting for the proteins labeled on the left. DOI: http://dx.doi.org/10.7554/eLife.06535.003 Figure 1—source data 1. Selectivity profile of i-CDK9. DOI: http://dx.doi.org/10.7554/eLife.06535.004 Figure 1—figure supplement 1. Recombinant CDK12-CycK is less sensitive to inhibition by i-CDK9.
Inhibition of phosphorylation of both Pol II CTD and SPT5 is expected to block transcriptional elongation, which will effectively decrease the production of labile proteins from short-lived transcripts.

CDK9-CycT1 = CDK9-CycT1 (Homo sapiens, UniProt P50750); experiment: In vitro kinase assay with CDK7tide, effect of BRD4 on response to i-CDK9; assay type: biochemical
CDK9-CycT1, sequence (P50750 whole entry): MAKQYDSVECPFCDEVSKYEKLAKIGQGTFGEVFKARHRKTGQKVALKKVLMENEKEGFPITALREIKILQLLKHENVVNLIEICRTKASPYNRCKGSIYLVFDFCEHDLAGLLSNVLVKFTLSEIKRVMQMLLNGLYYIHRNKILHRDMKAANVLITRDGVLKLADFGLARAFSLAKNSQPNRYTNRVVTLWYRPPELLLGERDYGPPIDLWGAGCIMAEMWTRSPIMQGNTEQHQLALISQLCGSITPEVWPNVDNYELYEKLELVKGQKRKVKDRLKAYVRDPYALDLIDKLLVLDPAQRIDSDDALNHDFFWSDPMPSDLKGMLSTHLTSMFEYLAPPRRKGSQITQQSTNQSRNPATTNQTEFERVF
CDK9-CycT1, sequence (O60563 whole entry partner): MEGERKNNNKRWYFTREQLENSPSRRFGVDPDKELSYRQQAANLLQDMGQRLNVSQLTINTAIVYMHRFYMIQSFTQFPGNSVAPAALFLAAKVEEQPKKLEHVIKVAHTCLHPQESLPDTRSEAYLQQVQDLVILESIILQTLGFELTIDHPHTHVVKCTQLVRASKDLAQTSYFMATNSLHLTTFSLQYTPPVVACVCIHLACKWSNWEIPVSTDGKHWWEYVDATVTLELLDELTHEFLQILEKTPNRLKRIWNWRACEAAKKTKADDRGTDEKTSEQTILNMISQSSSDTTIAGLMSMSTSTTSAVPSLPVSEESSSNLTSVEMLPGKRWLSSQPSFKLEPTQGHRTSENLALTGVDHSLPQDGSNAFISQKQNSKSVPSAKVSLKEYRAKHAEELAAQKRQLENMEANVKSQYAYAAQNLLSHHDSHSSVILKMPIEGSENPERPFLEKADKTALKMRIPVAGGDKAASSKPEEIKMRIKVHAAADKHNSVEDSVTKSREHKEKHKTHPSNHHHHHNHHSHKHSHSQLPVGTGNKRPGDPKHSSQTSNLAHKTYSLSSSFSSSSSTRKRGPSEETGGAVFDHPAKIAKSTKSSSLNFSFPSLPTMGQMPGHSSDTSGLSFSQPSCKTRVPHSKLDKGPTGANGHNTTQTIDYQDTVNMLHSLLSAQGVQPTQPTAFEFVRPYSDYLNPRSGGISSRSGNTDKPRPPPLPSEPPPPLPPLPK
Description: The reactions were stopped by adding 60 mM EDTA plus 0.01% Tween 20. After the addition of AlphaScreen beads (PerkinElmer) and detection antibody (Cell Signaling Technology, #4735) followed by overnight incubation at room temperature, the plates were read on an Envision 2101 (PerkinElmer).

N[C@H]1CC[C@H](Nc2cc(-c3cccc(NCc4cccc(F)c4)n3)c(Cl)cn2)CC1 [i-CDK9, N2′-(trans-4-aminocyclohexyl)-5′-chloro-N6-(3-fluorobenzyl)-2,4′-bipyridine-2′,6-diamine]
IC50 (ERK2): > 10 µM | IC50 (S6K1): > 10 µM | IC50 (RET): > 10 µM | IC50 (AKT1): > 10 µM | IC50 (PKN2): > 10 µM | IC50 (PCTK1): > 140 nM | IC50 (SYK): > 10 µM | IC50 (FYN): > 10 µM | IC50 (GSK3B): 1600 nM | IC50 (AURKA): > 10 µM | IC50 (ZAP70): > 10 µM | cleavage of PARP (HeLa cells): induced proteolytic cleavage | expression of MCL-1 (HeLa cells): markedly down-regulated | IC50 (CDK9-CycT1; CDK9/CycT1 + WT BRD4): 14.7 ± 2.1 nM | IC50 (CDK9-CycT1; CDK9/CycT1 + ΔPID BRD4): 7.2 ± 0.6 nM | IC50 (CDK9-CycT1; CDK9/CycT1, absence of BRD4): 4.4 ± 0.7 nM
